Where two headings read alike, the source gives them in different places.

Series [1] deals with T1, catalytic domain (JH1, amino acids 826-1132) of human JAK2 (Homo sapiens, UniProt O60674).
T1 construct: catalytic domain (JH1, amino acids 826-1132) of human JAK2; FLAG (N); biotin (biotinylated); purchased Carna Biosciences 08-445-20N; host or cells: baculovirus expression system
Nature of the series: JAK2 LanthaScreen JH1 binding assay. The settings on record: read-out: JH1 Bind IC50. The method, then: Example A. JAK2 LanthaScreen […] Binding Assay
JAK2 JH1 binding assay utilizes catalytic domain (JH1, amino acids 826-1132) of human JAK2 expressed as N-terminal FLAG-tagged, biotinylated protein in a baculovirus expression system (Carna Biosciences, Product #08-445-20N). The assay was conducted in black 384-well polystyrene plates in a final reaction volume of 20 μL. JAK2 JH1 (1.5 nM) was incubated with compounds (100 nL serially diluted in DMSO) in the presence of 50 nM fluorescent JAK2-JH1 tracer and 0.5 nM Streptavidin-Tb cryptate (Cisbio Part #610SATLB) in assay buffer (50 mM Tris, pH=7.5, 10 mM MgCl2, 0.01% Brij-35, 0.1% BSA, 1 mM EGTA, 5% Glycerol and 5 mM DTT). Non-specific binding was accessed in the presence of 2 mM ATP. After incubation for 2 hours at 25° C., LanthaScreen signals were read on a PHERAstar FS plate reader (BMG LABTECH). Data was analyzed with IDBS XLfit and GraphPad Prism 5.0 software using a four parameter dose response curve to determine IC50 for each compound.
A general note: TR-FRET usually uses a lanthanide donor and a delayed reading to cut background.

Series [2] can be described thus: In vivo pharmacokinetics, rat. Also noted: species or system Sprague Dawley rats. As to conditions: male, Sprague Dawley, plasma, oral 3.0 mg/kg. The method, then:
Example H. In Vivo Pharmacokinetics
Test compounds were administered to male Sprague Dawley rats or male and female Cynomolgus monkeys intravenously or via oral gavage. For intravenous (IV) dosing, test compounds were dosed at 1 mg/kg using a formulation of 10% dimethylacetamide (DMAC), 10% propylene glycol (PG) in acidified saline via IV bolus for rat or 10 min IV infusion for monkey. For oral (PO) dosing, test compounds were dosed at 3.0 mg/kg using 5% DMAC in 0.5% methylcellulose in citrate buffer (pH˜2.5). Blood samples were collected at predose and various time points up to 24 hours postdose. All blood samples were collected using EDTA as the anticoagulant and centrifuged to obtain plasma samples. The plasma concentrations of test compounds were determined by LC-MS/MS methods. The measured plasma concentrations were used to calculate PK parameters by standard noncompartmental methods using Phoenix® WinNonlin software program (version 8.0, Pharsight Corporation) or similar software. In rats and monkeys, cassette dosing of test compounds were conducted to obtain preliminary PK parameters. In vivo pharmacokinetic experiments with male beagle dogs may be performed under the conditions described above.

Another series has as its target T2, FLT3 (Homo sapiens, UniProt P36888).
T2 sequence (P36888 27-993): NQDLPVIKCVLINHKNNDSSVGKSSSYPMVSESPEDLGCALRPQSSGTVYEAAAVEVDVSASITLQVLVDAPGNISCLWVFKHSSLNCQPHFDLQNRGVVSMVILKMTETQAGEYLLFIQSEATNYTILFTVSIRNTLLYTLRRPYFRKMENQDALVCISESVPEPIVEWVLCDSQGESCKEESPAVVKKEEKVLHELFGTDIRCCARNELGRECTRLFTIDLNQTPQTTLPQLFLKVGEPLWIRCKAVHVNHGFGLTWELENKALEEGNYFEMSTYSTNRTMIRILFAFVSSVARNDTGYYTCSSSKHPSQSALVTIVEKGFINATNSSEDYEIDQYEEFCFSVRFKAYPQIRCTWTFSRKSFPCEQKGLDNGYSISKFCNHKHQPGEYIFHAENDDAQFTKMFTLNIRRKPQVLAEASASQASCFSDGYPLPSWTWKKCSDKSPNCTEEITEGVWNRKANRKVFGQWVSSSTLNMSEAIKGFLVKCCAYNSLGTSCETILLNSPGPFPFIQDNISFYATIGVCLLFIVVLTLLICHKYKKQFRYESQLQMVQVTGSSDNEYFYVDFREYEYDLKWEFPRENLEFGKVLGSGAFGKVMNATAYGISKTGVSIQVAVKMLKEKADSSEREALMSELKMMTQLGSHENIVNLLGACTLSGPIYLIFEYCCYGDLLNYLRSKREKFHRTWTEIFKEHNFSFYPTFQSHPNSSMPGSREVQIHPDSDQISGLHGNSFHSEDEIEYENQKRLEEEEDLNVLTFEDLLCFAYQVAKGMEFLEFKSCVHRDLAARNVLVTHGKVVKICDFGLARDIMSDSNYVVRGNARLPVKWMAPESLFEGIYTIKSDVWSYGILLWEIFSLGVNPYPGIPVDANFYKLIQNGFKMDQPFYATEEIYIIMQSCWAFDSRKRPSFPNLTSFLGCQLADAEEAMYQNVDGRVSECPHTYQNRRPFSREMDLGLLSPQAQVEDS
As to the kind of experiment: FLT3 enzymatic assay. The class given is biochemical. As to conditions: 1 mM ATP. In short, it runs like this: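 Kinase reaction at room temperature in HEPES 50 mM pH 7.0 with 10 mM MgCl2, 1 mM DTT: 0.011 nM FLT3, 1 mM ATP, 500 nM biotinylated TK substrate, 0.5% DMSO. After 60 min, HTRF read as 665/620 nm ratio; IC50 from fit of percent control activity versus log concentration.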

T1 sequence (O60674 826-1132): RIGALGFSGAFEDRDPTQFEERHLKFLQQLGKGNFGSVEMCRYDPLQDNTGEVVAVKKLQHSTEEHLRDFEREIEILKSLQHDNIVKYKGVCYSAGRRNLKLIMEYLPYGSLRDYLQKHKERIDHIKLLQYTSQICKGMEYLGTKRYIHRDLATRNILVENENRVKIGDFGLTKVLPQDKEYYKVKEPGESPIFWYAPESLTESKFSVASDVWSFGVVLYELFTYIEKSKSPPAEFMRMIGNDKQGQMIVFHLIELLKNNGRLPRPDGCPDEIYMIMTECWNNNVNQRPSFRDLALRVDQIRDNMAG

By IC50 is commonly meant the concentration that inhibits the measured activity by half. A word on the AUC: it is the area under the concentration-time curve, a measure of exposure. Read a high AUC as high exposure. On to `COC(=O)N[C@@H]1CC[C@@H](n2c(=O)n(C)c3cnc4[nH]c(-c5cn(C)nc5OC)c(-c5cccc(F)c5)c4c32)C1` [Example 3, Methyl ((1R,3R)-3-(8-(3-fluorophenyl)-7-(3-methoxy-1-methyl-1H-pyrazol-4-yl)-3-methyl-2-oxo-3,6-dihydroimidazo[4,5-d]pyrrolo[2,3-b]pyridin-1(2H)-yl)cyclopentyl)carbamate], for which the half-inhibitory concentration (IC50) is above 1000 nM in series [1] (Table A), above 1000 nM in series [1] (Table C) and above 2500 nM against FLT3. The same compound returned an area under the curve (AUC) in series [2] above 1.5 µM·h.
Turning to `COC(=O)N[C@@H]1CC[C@@H](n2c(=O)n(C)c3cnc4[nH]c(-c5cn(C)nc5OC)c(-c5ccc(F)cc5)c4c32)C1` [Example 1, Methyl ((1R,3R)-3-(8-(4-fluorophenyl)-7-(3-methoxy-1-methyl-1H-pyrazol-4-yl)-3-methyl-2-oxo-3,6-dihydroimidazo[4,5-d]pyrrolo[2,3-b]pyridin-1(2H)-yl)cyclopentyl)carbamate], the 50% inhibitory concentration (IC50) in series [1] (Table A) is above 1000 nM; in series [1] (Table C), above 1000 nM; against FLT3 it was above 2500 nM. In addition, the exposure (AUC) in series [2] was above 1.5 µM·h.
Turning to `[2H]C([2H])([2H])n1cc(-c2[nH]c3ncc4c(c3c2-c2ccc3c(c2)COC3(C)C)n([C@@H]2CC[C@@H](NC(=O)OC)C2)c(=O)n4C)c(F)n1` [Example 11, Methyl ((1R,3R)-3-(8-(1,1-dimethyl-1,3-dihydroisobenzofuran-5-yl)-7-(3-fluoro-1-(methyl-d3)-1H-pyrazol-4-yl)-3-methyl-2-oxo-3,6-dihydroimidazo[4,5-d]pyrrolo[2,3-b]pyridin-1(2H)-yl)cyclopentyl)carbamate], the IC50 in series [1] (Table A) was above 1000 nM; in series [1] (Table C), above 1000 nM; at FLT3 it was above 2500 nM.
Turning to `[2H]C([2H])([2H])n1cc(-c2[nH]c3ncc4c(c3c2-c2ccc3c(cnn3C(C)C)c2)n([C@@H]2CC[C@@H](NC(=O)OC)C2)c(=O)n4C)c(F)n1` [Example 16, Methyl ((1R,3R)-3-(7-(3-fluoro-1-(methyl-d3)-1H-pyrazol-4-yl)-8-(1-isopropyl-1H-indazol-5-yl)-3-methyl-2-oxo-3,6-dihydroimidazo[4,5-d]pyrrolo[2,3-b]pyridin-1(2H)-yl)cyclopentyl)carbamate], the figures for the IC50 (in series [1] (Table A); in series [1] (Table C); against FLT3) were above 1000 nM, above 1000 nM and 1250 to 2500 nM, respectively.
Take `[2H]C([2H])([2H])n1cc(-c2[nH]c3ncc4c(c3c2-c2ccc3c(cnn3CC(F)F)c2)n([C@@H]2CC[C@@H](NC(=O)OC)C2)c(=O)n4C)c(F)n1` [Example 18, Methyl ((1R,3R)-3-(8-(1-(2,2-difluoroethyl)-1H-indazol-5-yl)-7-(3-fluoro-1-(methyl-d3)-1H-pyrazol-4-yl)-3-methyl-2-oxo-3,6-dihydroimidazo[4,5-d]pyrrolo[2,3-b]pyridin-1(2H)-yl)cyclopentyl)carbamate]: the figures for the IC50 (in series [1] (Table A); in series [1] (Table C); against FLT3) were above 1000 nM, above 1000 nM and 1250 to 2500 nM, respectively.
For `COc1nn(C)cc1-c1[nH]c2ncc3c(c2c1-c1ccc2c(cnn2C)c1)n([C@H]1CC[C@@H](CC#N)CC1)c(=O)n3C` [E, reference compound], the IC50 at FLT3 is 250 to 1250 nM.
`[2H]C([2H])([2H])n1c(=O)n([C@@H]2CC[C@@H](NC(=O)OC)C2)c2c3c(-c4ccc5c(c4)COC5(C)C)c(-c4cn(CC)nc4F)[nH]c3ncc21` [Example 20, Methyl ((1R,3R)-3-(8-(1,1-dimethyl-1,3-dihydroisobenzofuran-5-yl)-7-(1-ethyl-3-fluoro-1H-pyrazol-4-yl)-3-(methyl-d3)-2-oxo-3,6-dihydroimidazo[4,5-d]pyrrolo[2,3-b]pyridin-1(2H)-yl)cyclopentyl)carbamate]: the IC50 in series [1] (Table A) was above 1000 nM; in series [1] (Table C), above 1000 nM; against FLT3 it was above 2500 nM.
As to `[2H]C([2H])([2H])n1c(=O)n([C@@H]2CC[C@@H](NC(=O)OC)C2)c2c3c(-c4ccc5c(c4)COC5(C)C)c(-c4cn(C([2H])([2H])C([2H])([2H])[2H])nc4F)[nH]c3ncc21` [Example 19, Methyl ((1R,3R)-3-(8-(1,1-dimethyl-1,3-dihydroisobenzofuran-5-yl)-7-(1-(ethyl-d5)-3-fluoro-1H-pyrazol-4-yl)-3-(methyl-d3)-2-oxo-3,6-dihydroimidazo[4,5-d]pyrrolo[2,3-b]pyridin-1(2H)-yl)cyclopentyl)carbamate], the half-inhibitory concentration (IC50) in series [1] (Table A) was above 1000 nM; in series [1] (Table C), above 1000 nM; against FLT3 it was above 2500 nM.
For `[2H]C([2H])([2H])n1cc(-c2[nH]c3ncc4c(c3c2-c2cc(F)c3c(cnn3C([2H])([2H])[2H])c2)n([C@@H]2CC[C@@H](NC(=O)OC)C2)c(=O)n4C([2H])([2H])[2H])c(F)n1` [Example 17, Methyl ((1R,3R)-3-(8-(7-fluoro-1-(methyl-d3)-1H-indazol-5-yl)-7-(3-fluoro-1-(methyl-d3)-1H-pyrazol-4-yl)-3-(methyl-d3)-2-oxo-3,6-dihydroimidazo[4,5-d]pyrrolo[2,3-b]pyridin-1(2H)-yl)cyclopentyl)carbamate], the IC50 is above 1000 nM in series [1] (Table A), above 1000 nM in series [1] (Table C) and 1250 to 2500 nM on FLT3.
As for `[2H]C([2H])([2H])n1ncc2cc(-c3c(-c4cn(C([2H])(C([2H])([2H])[2H])C([2H])([2H])[2H])nc4F)[nH]c4ncc5c(c34)n([C@@H]3CC[C@@H](NC(=O)OC)C3)c(=O)n5C([2H])([2H])[2H])ccc21` [Example 21, Methyl ((1R,3R)-3-(7-(3-fluoro-1-(propan-2-yl-d7)-1H-pyrazol-4-yl)-3-(methyl-d3)-8-(1-(methyl-d3)-1H-indazol-5-yl)-2-oxo-3,6-dihydroimidazo[4,5-d]pyrrolo[2,3-b]pyridin-1(2H)-yl)cyclopentyl)carbamate], the IC50 in series [1] (Table A) is above 1000 nM; in series [1] (Table C), above 1000 nM; on FLT3 it was 1250 to 2500 nM.
Turning to `[2H]C([2H])([2H])n1c(=O)n([C@@H]2CC[C@@H](NC(=O)OC)C2)c2c3c(-c4ccc5c(c4)COC5(C)C)c(-c4cn(CC(F)F)nc4F)[nH]c3ncc21` [Example 12, Methyl ((1R,3R)-3-(7-(1-(2,2-difluoroethyl)-3-fluoro-1H-pyrazol-4-yl)-8-(1,1-dimethyl-1,3-dihydroisobenzofuran-5-yl)-3-(methyl-d3)-2-oxo-3,6-dihydroimidazo[4,5-d]pyrrolo[2,3-b]pyridin-1(2H)-yl)cyclopentyl)carbamate], the IC50 is above 1000 nM in series [1] (Table A), above 1000 nM in series [1] (Table C) and above 2500 nM against FLT3.

(Values after patent publication US12084430B2, “Tricyclic urea compounds as JAK2 V617F inhibitors” (Incyte Corporation, priority 2022, dated 2024).)
